Reference: patent US11053221B2, “Substituted pyrimidines for inhibiting embryonic leucine zipper kinase activity” (Arrien Pharmaceuticals LLC, priority 2018, dated 2021)

How the values were obtained:
[1] = target: T1, FLT3 (Homo sapiens, UniProt P36888); assay: HotSpot kinase assay, FLT3; assay type: biochemical; conditions: HotSpot radiometric 33P ATP assay, 25° C., 120 min
T1 construct: purchased Reaction Biology Corporation
T1 sequence (P36888 27-993): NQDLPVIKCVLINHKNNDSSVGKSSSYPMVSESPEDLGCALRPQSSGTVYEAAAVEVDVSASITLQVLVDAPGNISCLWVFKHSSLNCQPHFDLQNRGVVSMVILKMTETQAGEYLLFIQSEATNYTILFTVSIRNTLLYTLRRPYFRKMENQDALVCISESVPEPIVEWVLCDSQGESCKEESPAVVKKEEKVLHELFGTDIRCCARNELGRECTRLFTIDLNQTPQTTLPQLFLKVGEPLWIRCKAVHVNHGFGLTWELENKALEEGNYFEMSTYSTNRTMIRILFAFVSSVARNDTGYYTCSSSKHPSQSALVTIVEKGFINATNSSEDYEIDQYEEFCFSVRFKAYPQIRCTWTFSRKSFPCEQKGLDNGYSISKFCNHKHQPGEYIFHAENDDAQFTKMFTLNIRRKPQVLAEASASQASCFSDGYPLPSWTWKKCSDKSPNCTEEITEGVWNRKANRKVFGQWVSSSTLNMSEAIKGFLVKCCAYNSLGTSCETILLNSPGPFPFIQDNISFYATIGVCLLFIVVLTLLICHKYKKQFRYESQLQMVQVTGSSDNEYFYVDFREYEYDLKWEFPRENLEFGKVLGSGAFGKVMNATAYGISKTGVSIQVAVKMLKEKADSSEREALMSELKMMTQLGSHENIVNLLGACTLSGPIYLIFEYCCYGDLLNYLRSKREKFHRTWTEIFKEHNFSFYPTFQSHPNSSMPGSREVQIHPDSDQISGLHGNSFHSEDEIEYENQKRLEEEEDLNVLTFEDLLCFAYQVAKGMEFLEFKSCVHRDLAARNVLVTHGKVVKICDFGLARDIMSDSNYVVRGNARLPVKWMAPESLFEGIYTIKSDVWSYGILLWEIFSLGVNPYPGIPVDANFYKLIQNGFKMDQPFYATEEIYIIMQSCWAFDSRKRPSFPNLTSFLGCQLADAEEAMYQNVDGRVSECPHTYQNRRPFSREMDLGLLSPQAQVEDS
Experimental: (§1) In vitro profiling of the MELK, MELK (T460M) kinase panel was performed at Reaction Biology Corporation using the “HotSpot” assay platform. In vitro profiling of the FLT3, FLT3 mutant forms; FLT3 (D835Y), FLT3 (F594R595insR), FLT3 (F594R595insREY), FLT3 (ITD), FLT3 (ITD)-NPOS, FLT3 (ITD)-W51 and FLT3 (R595_E596insEY) kinase panel is performed in the same manner.
(§2) Briefly, specific kinase/substrate pairs along with required cofactors were prepared in reaction buffer; 20 mM Hepes (pH 7.5), 10 mM MgCl2, 1 mM EGTA, 0.02% Brij35, 0.02 mg/mL BSA, 0.1 mM Na3VO4, 2 mM DTT, 1% DMSO. Compounds were delivered into the reaction, followed ˜20 min later by addition of a mixture of ATP (Sigma) and ^33P ATP (PerkinElmer) to a final concentration of […]. Reactions were carried out at 25° C. for 120 min, followed by spotting of the reactions onto P81 ion exchange filter paper (Whatman). Unbound phosphate was removed by extensive washing of filters in 0.75% phosphoric acid. […] IC50 values and curve fits were obtained using Prism (GraphPad Software).

[2] = target: T2, MELK (Homo sapiens, UniProt Q14680); assay: HotSpot kinase assay, MELK; assay type: biochemical; conditions: HotSpot radiometric 33P ATP assay, 25° C., 120 min
T2 construct: purchased Reaction Biology Corporation
T2 sequence (Q14680 whole entry): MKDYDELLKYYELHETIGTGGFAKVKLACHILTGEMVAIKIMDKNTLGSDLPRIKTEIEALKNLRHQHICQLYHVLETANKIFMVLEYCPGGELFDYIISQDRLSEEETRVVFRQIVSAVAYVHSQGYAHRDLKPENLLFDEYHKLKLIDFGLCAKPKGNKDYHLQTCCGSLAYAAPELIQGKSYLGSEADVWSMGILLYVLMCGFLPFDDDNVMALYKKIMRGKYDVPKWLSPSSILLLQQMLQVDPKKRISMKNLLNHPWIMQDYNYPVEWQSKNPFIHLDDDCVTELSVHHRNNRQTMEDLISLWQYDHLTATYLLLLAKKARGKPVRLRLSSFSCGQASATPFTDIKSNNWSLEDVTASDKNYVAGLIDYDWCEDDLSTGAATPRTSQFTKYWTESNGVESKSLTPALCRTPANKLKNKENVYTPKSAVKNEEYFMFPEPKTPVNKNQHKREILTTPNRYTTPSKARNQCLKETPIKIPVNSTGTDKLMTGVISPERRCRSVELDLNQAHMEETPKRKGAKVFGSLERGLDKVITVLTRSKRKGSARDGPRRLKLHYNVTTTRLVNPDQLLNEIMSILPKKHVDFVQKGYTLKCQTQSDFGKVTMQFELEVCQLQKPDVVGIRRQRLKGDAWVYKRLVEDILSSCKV
Experimental: as §1, §2

IC50 [1] [nM]	IC50 [2] [nM]	SMILES
< 200	< 200	N[C@H]1CC[C@@H](COc2cncnc2-c2cnn(-c3ccc(N4CCOCC4)cc3)c2)CC1 [Compound I-33, (1s,4s)-4-(((4-(1-(4-morpholinophenyl)-1H-pyrazol-4-yl)pyrimidin-5-yl)oxy)methyl)cyclo-hexan-1-amine]
< 200	200 to 1000	CCS(=O)(=O)c1ccc(-n2cc(-c3ncncc3OC[C@H]3CC[C@@H](N)CC3)cn2)cc1 [Compound I-34, (1s,4s)-4-(((4-(1-(4-(ethylsulfonyl)phenyl)-1H-pyrazol-4-yl)pyrimidin-5-yl)oxy)methyl)cyclo-hexan-1-amine]
200 to 1000	200 to 1000	CCS(=O)(=O)c1ccc(-n2cc(-c3ncncc3OC[C@H]3CC[C@@H](N)CC3)cn2)c(F)c1 [Compound I-35, (1s,4s)-4-(((4-(1-(4-(ethylsulfonyl)-2-fluorophenyl)-1H-pyrazol-4-yl)pyrimidin-5-yl)oxy)methyl)cyclo-hexan-1-amine]

Continued, molecule first:

SMILES	IC50 [1] [nM]	IC50 [2] [nM]
Fc1ccccc1-n1cc(-c2ncnc(Cl)c2OCC2CCNCC2)cn1 [Compound I-27, 4-chloro-6-(1-(2-fluorophenyl)-1H-pyrazol-4-yl)-5-(piperidin-4-ylmethoxy)pyrim-idine]	< 200	200 to 1000
c1ccc(-n2cc(-c3ncncc3OCC3CCNCC3)cn2)cc1 [Compound I-28, 4-(1-phenyl-1H-pyrazol-4-yl)-5-(piperidin-4-ylmethoxy)pyrim-idine]	200 to 1000	200 to 1000
Fc1cccc(F)c1-n1cc(-c2ncnc(Cl)c2OCC2CCNCC2)cn1 [Compound I-29, 4-chloro-6-(1-(2,6-difluorophenyl)-1H-pyrazol-4-yl)-5-(piperidin-4-ylmethoxy)pyrim-idine]	200 to 1000	> 1000
Fc1cccc(F)c1-n1cc(-c2ncncc2OCC2CCNCC2)cn1 [Compound I-30, 4-(1-(2,6-difluorophenyl)-1H-pyrazol-4-yl)-5-(piperidin-4-ylmethoxy)pyrim-idine]	200 to 1000	200 to 1000
OC1CCC(COc2cncnc2-c2cnn(-c3ccccc3F)c2)CC1 (stereo not drawn) [Compound I-31, 4-(((4-(1-(2-fluorophenyl)-1H-pyrazol-4-yl)pyrimidin-5-yl)oxy)methyl)cyclo-hexan-1-ol]	200 to 1000	> 1000
CN1CCN(c2ccc(-n3cc(-c4ncncc4OC[C@H]4CC[C@@H](N)CC4)cn3)cc2)CC1 [Compound I-32, (1s,4s)-4-(((4-(1-(4-(4-methylpiperazin-1-yl)phenyl)-1H-pyrazol-4-yl)pyrimidin-5-yl)oxy)methyl)cyclo-hexan-1-amine]	< 200	< 200
